Target: T1, ERα LBD (Homo sapiens, UniProt P03372)
T1 construct: host or cells: HEK293
T1 sequence (P03372 311-547 limits assumed): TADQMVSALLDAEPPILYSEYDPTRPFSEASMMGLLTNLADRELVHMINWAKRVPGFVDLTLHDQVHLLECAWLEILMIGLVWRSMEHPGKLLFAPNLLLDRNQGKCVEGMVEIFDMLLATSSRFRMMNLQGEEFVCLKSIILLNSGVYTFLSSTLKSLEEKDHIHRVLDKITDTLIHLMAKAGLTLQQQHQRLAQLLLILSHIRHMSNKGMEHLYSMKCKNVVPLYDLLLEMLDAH
Test: Ability to bind to ERα: pBIND-ERα LBD / GAL4 luciferase reporter in HEK293 cells
Format: cell-based
Parameters: key: firefly luciferase / Renilla luciferase luminescence ratio
Conditions: negative control 0.00847035
Experimental: A human kidney-derived cell line HEK293 was cultured (37° C., 5% CO2) in Dulbecco's modified Eagle medium (hereinafter, abbreviated to DMEM) containing 10% (v/v) fetal bovine serum (FBS) and penicillin/streptomycin.
2) Measurement of Binding Activity Against ERs
Specifically, HEK293 cells were inoculated at a cell density of 4.0×10^4 cells/well to a 96-well plate. After 12 hours therefrom, the medium was replaced with a culture solution (DMEM containing 5% (v/v) charcoal-treated serum). The cells were cotransfected with pBIND-ERα for the expression of ERα LBD or pBIND-ERβ for the expression of ERβ LBD (Promega Corp.) and pGL4.35[luc2P/9XGAL4UAS/Hygro](Promega Corp.) using Lipofectamine 2000 (Invitrogen Corp.) according to the protocol attached to the product. 24 hours after transfection, the medium was replaced with a culture solution containing a test sample, followed by culture for another 24 hours. The activity measurement of firefly luciferase (index for the ligand binding activity of ER) and Renilla reniformis luciferase (index for the transfection efficiency of the plasmids) was carried out using Dual-Glo™ Luciferase Assay System (Promega Corp.) according to the attached protocol. The luminescence intensity of the firefly luciferase was divided by the luminescence intensity of the Renilla reniformis luciferase to calculate a relative light unit (RLU).

- relative light unit (RLU), ligand binding activity ERα (0.01 nM): 0.02573
- relative light unit (RLU), ligand binding activity ERα (0.1 nM): 0.06025
- relative light unit (RLU), ligand binding activity ERα (1 nM): 0.2198
- relative light unit (RLU), ligand binding activity ERα (10 nM): 1.873
- relative light unit (RLU), ligand binding activity ERα (100 nM): 3.193
SMILES: Oc1ccc(CC(C=C(F)F)c2ccc(O)cc2F)c(F)c1 (centres unmarked) [Compound 17-F, 4,4′-(4,4-difluorobut-3-ene-1,2-diyl)bis(3-fluorophenol)]
